Test results reported in patent publication US11613552B2, “Pharmaceutical agents, compositions, and methods relating thereto” (Alltech, Inc., priority 2017, dated 2023).

How the values were obtained:
Glut4 = assay: QRT-PCR of Glut4 mRNA in livers of Lepr^db/db mice; assay type: in vivo, mouse; settings: 25 μg selenium/kg ip daily, 52 days (FIG. 15)
Procedure: Male Lepr^db/db mice (C57BL/6J strain, purchased from The Jackson Laboratory) at postnatal day 38 were intraperitoneally injected daily with physiological saline ([…]) containing 0.2% DMSO, Compound #43, or Compound #50 (25 μg selenium of each compound per kilogram body weight, diluted in sterile physiological saline) for 52 days. After treatment, livers were collected and subjected to RNA analysis.
(§1) Total liver RNA from saline- or Compound #43-treated Lepr^db/db mice was isolated using a Qiagen RNAeasy RNA isolation kit according to the Manufacturer's protocol. Total RNA from cultured cells was isolated using Trizol (Invitrogen) according to the manufacturer's protocol, and then incubated with DNase I to remove any potential contaminating genomic DNA. RNA samples were subjected to real-time PCR analysis using Applied-Bioscience's RT kit and predesigned Taqman probes (Invitrogen), as described previously (Lan et al EMBO J 2003). Data were normalized by Actin B (Actb) mRNA levels in each sample and are presented as mean±SEM of 3-5 samples.

HepG2 cells = assay: Glucose production assay in HepG2 cells; assay type: cell-based, human; settings: tested doses, serum-free glucose production media, 48 hr (FIG. 1)
Procedure: Equal numbers of Human HepG2 or rat H4IIE cells (1-1.5×10^5 cells/well) were seeded on 96 well plates in 10% FBS-containing media for 24 hr. Cells were then washed twice with PBS, and treated with various concentrations of compounds, metformin or insulin in 100 μl of glucose production media (glucose-free, phenol red-free DMEM media supplemented with 20 mM sodium lactate, 2 mM sodium pyruvate and 5 mM HEPES) at 37° C. for 24 hr (H4IIE cells only) or 48 hr (HepG2 cell only). Cells were also incubated with 0.24% DMSO (the maximal volume of DMSO solvent used in the experiments).
After the above treatments, 50 μl of culture media were collected, and subjected to glucose analysis using Molecular Probes Amplex Red glucose assay kit (Cat #A22189) according to the manufacturer's protocol. Cell numbers or viability in the culture plate after the above compound treatments were determined using Promega's CellTiter96® AQueous One Solution Cell Proliferation Assay kits, according to the manufacturer's protocol and instructions. In brief, after removing 50 μl of culture media for glucose assay, cells were incubated with AQueous One solution (25 μl stock solution and 50 μl prewarmed PBS/per well) at 37° C. for 1 hour, and the absorbance of OD490 nm in each sample was determined by the Bio-Tek microplate reader. Cell viability in culture wells were determined by the subtraction of OD490 nm in cultured cells with the OD490 nm in plain culture media (without seeding of cells). Glucose production in the culture cells were obtained by normalizing the glucose concentration in culture media by cell viability in each well. At least 3 samples per each treatment were examined for the above analysis. Data are presented as Mean±SEM of those samples. Experiments were repeated at least twice.
The half maximal inhibitory concentration (IC50 values) of Compound #43 or metformin for the inhibition of glucose production were determined using the ED50 Plus v1.0 online software.

Lepr^db/db mice = assay: Glucose tolerance test in Lepr^db/db mice; assay type: in vivo, mouse
Procedure: Male Lepr^db/db mice at 38 days of age were intraperitoneally (ip) injected daily with physiological saline ([…]) containing 0.2% DMSO, Compound #C, Compound #50, Compound #68, and/or Compound #43 (25 μg selenium or sulfur equivalents of each compound per kilogram body weight, diluted in sterile physiological saline) for periods ranging from 43-90 days. Body weights of the above treated mice were recorded daily using a balance and any visible abnormal animal gross morphology and walking behavior were monitored daily. After the treatments, animals were fasted overnight and then subjected to blood glucose or HbA1c assays, glucose tolerance tests or tissue collections.
For comparative studies of any potential anti-diabetic effects of Compounds #43, #69 and #70, male Lepr^db/db mice at 41 days of age were intraperitoneally (ip) injected daily with physiological saline ([…]) containing 0.2% DMSO, Compound #43, Compound #69, or Compound #70 (25 μg selenium of each compound per kilogram body weight, diluted in sterile physiological saline). After the treatments for 43 days, animals were fasted overnight and then subjected to blood glucose and glucose tolerance tests. After daily treatments of these compounds for 90 days, sera from these animals were collected and then subjected to blood HbA1c assays.
Glucose tolerance tests were performed as described previously (Li et al, Int J Biol Sci 2008; 4:29-36). Briefly, overnight-fasted Lepr^db/db mice after saline or compound treatments were injected intraperitoneally with 2 grams/kg body weight of 20% D-glucose. Blood glucose levels at time 0 (immediately before the injection of glucose), 0.25, 0.5, 1 and 2 hours after injection of glucose were determined using a glucometer with a maximum glucose measurement capacity of 600 mg/dL. Because of this, blood glucose levels over 600 mg/dL were counted as 600 mg/dL in the data analysis.

G6pc [1] = assay: QRT-PCR of basal G6pc expression in AML-12 cells; assay type: cell-based, mouse; settings: 300 ppb selenium (3.8 μM), serum-free, 24 hr (FIG. 10A)
Procedure: For RNA analysis of basal G6pc expression (without the presence of diabetic stimuli: 8-CPT/Dex), amplified AML-12 and HepG2 cells were cultured on 24-well plates (0.5-2×10^5 cells/well) overnight in 10% FBS ITS- and Dex-free DMEM/F12 media and 10% FBS EMEM media, respectively. These cells were rinsed twice with PBS to remove residual sera. Then, the PBS-washed HepG2 cells were treated without or with insulin or Compound #43 in serum-free EMEM media for 40 hr. In some experiments, the PBS-washed AML-12 cells were incubated without or with Compound #43 or other selenium compounds in serum-free DMEM/F12 media for 24 hours. In other experiments, amplified AML-12 cells were pretreated without or with Compound #43 (150 or 300 ppb) in 10% FBS but ITS/Dex-free DMEM/F12 media for 24 hr. After 24 hr treatment, AML-12 cells were washed twice with PBS (to remove any residual serum in the culture) and then treated with insulin, Compound #43 or both, in the serum-free DMEM/Dex media for 6 hr.
as §1, with “Total” for “Total liver”, “or selenium compound-treated” for “or Compound #43-treated”, “PCR (QRT-PCR)” for “PCR”, “each sample,” for “each sample”

G6pc [2] = assay: QRT-PCR of G6pc mRNA in livers of Lepr^db/db mice; assay type: in vivo, mouse; settings: 25 μg selenium/kg ip daily, 52 days (FIG. 9)
Procedure: Male Lepr^db/db mice (C57BL/6J strain, purchased from The Jackson Laboratory) at 38-days of age were intraperitoneally injected daily with physiological saline ([…]) containing 0.2% DMSO, Compound #50, or Compound #43 (25 μg selenium equivalent of each compound per kilogram body weight, diluted in the sterile physiological saline) for 52 days. After the treatment, livers were collected and subjected RNA analysis.
as §1, with “Total” for “Total liver”, “or selenium compound-treated” for “or Compound #43-treated”, “PCR (QRT-PCR)” for “PCR”, “each sample,” for “each sample”

brain cells = settings: cited from earlier work
Tau = settings: AD brains; cited from earlier work
C2C12 cells = settings: each individually, mouse skeletal muscle myoblast C2C12 cells; cited from earlier work

C[Se]C[C@H]1O[C@@H](n2cnc3c(N)ncnc32)C2OC(=O)OC21 (stereo partly shown) [Compound #50, Adenosine, 5′-Se-methyl-5′-seleno-, cyclic 2′,3′-carbonate]
effect on Glut4 mRNA levels in the liver (Glut4): numerically increased Glut4 mRNA levels | effect on glucose production in HepG2 cells (HepG2 cells): inhibited glucose production | blood glucose level at 2 hr after glucose injection (Lepr^db/db mice; FIG. 8A, 43 days treatment): significant decrease of glucose level | blood glucose levels at 0.25, 0.5 and 1 hr after glucose injection (Lepr^db/db mice; FIG. 8A, 43 days treatment): no obvious decrease | effect on G6pc expression (G6pc [1]): did not significantly inhibit G6pc expression | effect on G6pc mRNA levels in the liver (G6pc [2]): slightly, but not significantly, decreased

C[Se]C[C@H]1O[C@@H](n2cnc3c(N)ncnc32)[C@@H](O)C1O (stereo partly shown) [Compound C, 5′-Methylselenoadenosine, reference compound]
gluconeogenesis in brain cells (brain cells): can enhance gluconeogenesis in brain cells | effect on glucose production in HepG2 cells (HepG2 cells): inhibited glucose production | Tau hyperphosphorylation (Tau): can inhibit Tau hyperphosphorylation in AD brains | glucose tolerance (overall) (Lepr^db/db mice; 25 μg selenium/kg ip daily 43 days from day 38, glucose 2 g/kg (FIG. 8A)): did not improve glucose tolerance | mitochondrial (MT) potential (C2C12 cells): can enhance mitochondrial (MT) potential | effect on G6pc expression (G6pc [1]): did not significantly inhibit G6pc expression

Nc1ncnc2c1ncn2[C@@H]1O[C@H](C[Se]CC[C@H](N)C(=O)O)C(O)C1O (stereo partly shown) [Compound D, 5′-Selenoadenosyl homocysteine, reference compound]
effect on glucose production in HepG2 cells (HepG2 cells): inhibited glucose production | Tau hyperphosphorylation (Tau): can inhibit Tau hyperphosphorylation in AD brains | mitochondrial (MT) potential (C2C12 cells): can enhance mitochondrial (MT) potential | effect on G6pc expression (G6pc [1]): did not significantly inhibit G6pc expression
